Assay results reported in patent US6737383B1, “Herbicidal oxadiazolidines” (priority 1999, dated 2004).

What was measured:
[1] = test system: cocklebur; experiment: Test B pre/postemergence cocklebur; format: in vivo, Xanthium strumarium; details: for Cocklebur plant response rating: scale of 0 to 10 where 0 is no effect and 10 is complete control
Summary of the method: (§1)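 Response is a visual 0-to-10 score relative to untreated plants, where 0 means no effect and 10 means complete control, taken twelve to sixteen days after application. Treatments went onto soil at planting and onto foliage of 1- to 4-leaf plants, using a surfactant-containing non-phytotoxic solvent.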

[2] = test system: morningglory; experiment: Test B pre/postemergence morningglory; format: in vivo, Ipomoea hederacea; details: for Morningglory plant response rating: scale of 0 to 10 where 0 is no effect and 10 is complete control
Summary of the method: as §1

[3] = test system: bamyardgrass; experiment: Test B flood test barnyardgrass; format: in vivo, Echinochloa crus-galli
Summary of the method: (§2)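 Flood test on plants grown to the 2-leaf stage; treated plants kept in greenhouse twelve to sixteen days, then visually rated against controls on a 0 (no effect) to 10 (complete control) scale.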

[4] = test system: duck salad; experiment: Test B flood test duck salad; format: in vivo, Heteranthera limosa
Summary of the method: as §2

[5] = test system: pigweed; experiment: Test B pre/postemergence pigweed; format: in vivo, Amaranthus retroflexus; details: for Redroot pigweed plant response rating: scale of 0 to 10 where 0 is no effect and 10 is complete control
Summary of the method: as §1

[6] = test system: sugar beet; experiment: Test B pre/postemergence sugar beet; format: in vivo, Beta vulgaris; details: for Sugarbeets plant response rating: scale of 0 to 10 where 0 is no effect and 10 is complete control
Summary of the method: as §1

[7] = test system: giant foxtail; experiment: Test B pre/postemergence giant foxtail; format: in vivo, Setaria faberii; details: for Giant foxtail plant response rating: scale of 0 to 10 where 0 is no effect and 10 is complete control
Summary of the method: as §1

[8] = test system: bedstraw; experiment: Test B pre/postemergence bedstraw; format: in vivo, Galium aparine; details: Rate 500 g/ha, scale of 0 to 10 where 0 is no effect and 10 is complete control
Summary of the method: as §1

[9] = test system: rice; experiment: Test B flood test rice; format: in vivo, Oryza sativa
Summary of the method: as §2

[10] = test system: blackgrass; experiment: Test B pre/postemergence blackgrass; format: in vivo, Alopecurus myosuroides; details: for Blackgrass plant response rating: scale of 0 to 10 where 0 is no effect and 10 is complete control
Summary of the method: as §1

[11] = test system: surinam grass; experiment: Test B pre/postemergence surinam grass; format: in vivo, Brachiaria decumbens; details: for B. signalgrass plant response rating: scale of 0 to 10 where 0 is no effect and 10 is complete control
Summary of the method: as §1

[12] = test system: corn; experiment: Test B pre/postemergence corn; format: in vivo, Zea mays; details: for Corn plant response rating: scale of 0 to 10 where 0 is no effect and 10 is complete control
Summary of the method: as §1

[13] = test system: velvetleaf; experiment: Test B pre/postemergence velvetleaf; format: in vivo, Abutilon theophrasti; details: for Velvetleaf plant response rating: scale of 0 to 10 where 0 is no effect and 10 is complete control
Summary of the method: as §1

[14] = test system: purple nutsedge; experiment: Test B pre/postemergence purple nutsedge; format: in vivo, Cyperus rotundus; details: for Nutsedge plant response rating: scale of 0 to 10 where 0 is no effect and 10 is complete control
Summary of the method: as §1

[15] = test system: rape; experiment: Test B pre/postemergence rape; format: in vivo, Brassica napus; details: for Rape plant response rating: scale of 0 to 10 where 0 is no effect and 10 is complete control
Summary of the method: as §1

[16] = Postemergence, Rate 125 g/ha, scale 0 to 10, 0 is no effect, 10 is complete control
[17] = Postemergence, Rate 250 g/ha, scale 0 to 10, 0 is no effect, 10 is complete control
[18] = Preemergence, Rate 62 g/ha, scale 0 to 10 (0 no effect, 10 complete control)
[19] = Rate 62 g/ha, flood test species, Pre-emergence, visual evaluation after twelve to sixteen days
[20] = Rate 125 g/ha, under heading Pre-emergence, flood test species, visual evaluation after twelve to sixteen days
[21] = Rate 250 g/ha, Pre-emergence, flood-test species, scale 0 to 10, 0 is no effect, 10 is complete control
[22] = Rate 500 g/ha, Pre-emergence, flood test species, scale 0 to 10 (0 no effect, 10 complete control)

CC(C)N(C(=O)n1oc(=O)n(CCC#N)c1=O)c1ccc(F)cc1 [Compound 388]
Plant response rating, Cocklebur [1, 16]: 0 | Plant response rating, Cocklebur [1, 17]: 0 | Cocklebur plant response rating ([1]; Postemergence, Rate 500 g/ha): 0 | Plant response rating, Cocklebur [1, 18]: 0 | Cocklebur plant response rating (0 to 10 scale) ([1]; Preemergence, Rate 125 g/ha): 0 | Cocklebur plant response rating ([1]; Preemergence, Rate 250 g/ha): 0 | Cocklebur plant response rating ([1]; Preemergence, Rate 500 g/ha): 0 | Cocklebur plant response rating ([1]; Rate 62 g/ha, Postemergence): 0 | Plant response rating, Morningglory [2, 16]: 3 | Plant response rating, Morningglory [2, 17]: 4 | Morningglory plant response rating ([2]; Postemergence, Rate 500 g/ha): 5 | Plant response rating, Morningglory [2, 18]: 0 | Morningglory plant response rating (0 to 10 scale) ([2]; Preemergence, Rate 125 g/ha): 0 | Morningglory plant response rating ([2]; Preemergence, Rate 250 g/ha): 0 | Morningglory plant response rating ([2]; Preemergence, Rate 500 g/ha): 0 | Morningglory plant response rating ([2]; Rate 62 g/ha, Postemergence): 1 | Plant response rating, Barnyardgrass (0 to 10 scale, 0 is no effect, 10 is complete control) [3, 19]: 0 | Barnyardgrass plant response rating (0 to 10 scale, 0 is no effect, 10 is complete control) [3, 20]: 0 | Barnyardgrass plant response rating [3, 21]: 0 | Barnyardgrass plant response rating [3, 22]: 0 | Plant response rating, Ducksalad (0 to 10 scale, 0 is no effect, 10 is complete control) [4, 19]: 0 | Ducksalad plant response rating (0 to 10 scale, 0 is no effect, 10 is complete control) [4, 20]: 0 | Ducksalad plant response rating [4, 21]: 0 | Ducksalad plant response rating [4, 22]: 0 | Plant response rating, Redroot pigweed [5, 16]: 0 | Plant response rating, Redroot pigweed [5, 17]: 0 | Redroot pigweed plant response rating ([5]; Postemergence, Rate 500 g/ha): 3 | Plant response rating, Redroot pigweed [5, 18]: 0 | Redroot pigweed plant response rating (0 to 10 scale) ([5]; Preemergence, Rate 125 g/ha): 0 | Redroot pigweed plant response rating ([5]; Preemergence, Rate 250 g/ha): 6 | Redroot pigweed plant response rating ([5]; Preemergence, Rate 500 g/ha): 10 | Redroot pigweed plant response rating ([5]; Rate 62 g/ha, Postemergence): 0 | Plant response rating, Sugarbeets [6, 16]: 0 | Plant response rating, Sugarbeets [6, 17]: 0 | Sugarbeets plant response rating ([6]; Postemergence, Rate 500 g/ha): 4 | Plant response rating, Sugarbeets [6, 18]: 0 | Sugarbeets plant response rating (0 to 10 scale) ([6]; Preemergence, Rate 125 g/ha): 2 | Sugarbeets plant response rating ([6]; Preemergence, Rate 250 g/ha): 3 | Sugarbeets plant response rating ([6]; Preemergence, Rate 500 g/ha): 6 | Sugarbeets plant response rating ([6]; Rate 62 g/ha, Postemergence): 0 | Plant response rating, Giant foxtail [7, 16]: 8 | Plant response rating, Giant foxtail [7, 17]: 8 | Giant foxtail plant response rating ([7]; Postemergence, Rate 500 g/ha): 9 | Plant response rating, Giant foxtail [7, 18]: 8 | Giant foxtail plant response rating (0 to 10 scale) ([7]; Preemergence, Rate 125 g/ha): 8 | Giant foxtail plant response rating ([7]; Preemergence, Rate 250 g/ha): 10 | Giant foxtail plant response rating ([7]; Preemergence, Rate 500 g/ha): 10 | Giant foxtail plant response rating ([7]; Rate 62 g/ha, Postemergence): 7 | Bedstraw plant response rating ([8]; Postemergence): 6 | Bedstraw plant response rating ([8]; Preemergence): 7 | Plant response rating, Rice (0 to 10 scale, 0 is no effect, 10 is complete control) [9, 19]: 0 | Rice plant response rating (0 to 10 scale, 0 is no effect, 10 is complete control) [9, 20]: 0 | Rice plant response rating [9, 21]: 0 | Rice plant response rating [9, 22]: 0 | Plant response rating, Blackgrass [10, 16]: 8 | Blackgrass plant response rating ([10]; Postemergence, Rate 500 g/ha): 10 | Plant response rating, Blackgrass [10, 18]: 0 | Blackgrass plant response rating (0 to 10 scale) ([10]; Preemergence, Rate 125 g/ha): 1 | Blackgrass plant response rating ([10]; Preemergence, Rate 250 g/ha): 5 | Blackgrass plant response rating ([10]; Preemergence, Rate 500 g/ha): 6 | Plant response rating, B. signalgrass [11, 16]: 6 | Plant response rating, B. signalgrass [11, 17]: 8 | B. signalgrass plant response rating ([11]; Postemergence, Rate 500 g/ha): 8 | Plant response rating, B. signalgrass [11, 18]: 0 | B. signalgrass plant response rating (0 to 10 scale, 0 is no effect, 10 is complete control) ([11]; Preemergence, Rate 125 g/ha): 2 | B. signalgrass plant response rating ([11]; Preemergence, Rate 250 g/ha): 3 | B. signalgrass plant response rating ([11]; Preemergence, Rate 500 g/ha): 6 | B. signalgrass plant response rating ([11]; Rate 62 g/ha, Postemergence): 1 | Plant response rating, Corn [12, 16]: 0 | Plant response rating, Corn [12, 17]: 0 | Corn plant response rating ([12]; Postemergence, Rate 500 g/ha): 0 | Plant response rating, Corn [12, 18]: 0 | Corn plant response rating (0 to 10 scale) ([12]; Preemergence, Rate 125 g/ha): 0 | Corn plant response rating ([12]; Preemergence, Rate 500 g/ha): 9 | Corn plant response rating ([12]; Rate 62 g/ha, Postemergence): 0 | Plant response rating, Velvetleaf [13, 16]: 2 | Plant response rating, Velvetleaf [13, 17]: 2 | Velvetleaf plant response rating ([13]; Postemergence, Rate 500 g/ha): 6 | Plant response rating, Velvetleaf [13, 18]: 0 | Velvetleaf plant response rating (0 to 10 scale) ([13]; Preemergence, Rate 125 g/ha): 2 | Velvetleaf plant response rating ([13]; Preemergence, Rate 250 g/ha): 2 | Velvetleaf plant response rating ([13]; Preemergence, Rate 500 g/ha): 6 | Velvetleaf plant response rating ([13]; Rate 62 g/ha, Postemergence): 0 | Plant response rating, Nutsedge [14, 17]: 5 | Nutsedge plant response rating ([14]; Postemergence, Rate 500 g/ha): 6 | Plant response rating, Nutsedge [14, 18]: 0 | Nutsedge plant response rating (0 to 10 scale) ([14]; Preemergence, Rate 125 g/ha): 0 | Nutsedge plant response rating ([14]; Preemergence, Rate 250 g/ha): 0 | Plant response rating, Rape [15, 16]: 0 | Rape plant response rating ([15]; Postemergence, Rate 500 g/ha): 0 | Plant response rating, Rape [15, 18]: 0 | Rape plant response rating (0 to 10 scale) ([15]; Preemergence, Rate 125 g/ha): 0 | Rape plant response rating ([15]; Preemergence, Rate 250 g/ha): 2 | Rape plant response rating ([15]; Preemergence, Rate 500 g/ha): 8 | Rape plant response rating ([15]; Rate 62 g/ha, Postemergence): 0
